The assay deals with T1, human ferroportin (Homo sapiens, UniProt Q9NP59).
T1 construct: expressed in transfected cells
T1 sequence (Q9NP59 1-571): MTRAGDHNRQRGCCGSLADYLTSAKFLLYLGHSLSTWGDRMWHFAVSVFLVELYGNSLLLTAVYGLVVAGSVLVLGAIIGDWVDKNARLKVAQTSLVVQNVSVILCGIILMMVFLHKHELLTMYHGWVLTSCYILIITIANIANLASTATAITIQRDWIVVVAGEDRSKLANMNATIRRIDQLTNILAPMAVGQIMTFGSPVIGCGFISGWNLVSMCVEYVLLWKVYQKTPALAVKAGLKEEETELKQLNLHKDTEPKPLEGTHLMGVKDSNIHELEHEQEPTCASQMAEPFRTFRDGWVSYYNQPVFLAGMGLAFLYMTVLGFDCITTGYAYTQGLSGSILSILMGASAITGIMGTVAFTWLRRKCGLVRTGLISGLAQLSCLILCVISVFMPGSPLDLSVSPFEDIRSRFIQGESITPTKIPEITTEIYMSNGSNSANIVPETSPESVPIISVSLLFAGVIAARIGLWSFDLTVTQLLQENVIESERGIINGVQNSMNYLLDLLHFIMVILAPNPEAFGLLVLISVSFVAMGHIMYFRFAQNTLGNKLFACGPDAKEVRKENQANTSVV
Nature of the assay: ferroportin internalization assay (inhibition of hepcidin-induced internalization of Fpn). It counts as cell-based. The settings on record: MDCK-FPN-HaloTag cells, 100 nM hepcidin, overnight incubation; concentration range from 0.04 to 40 μM. The procedure:
The hepcidin-antagonistic action of the sulfonaminoquinoline compounds of the present invention was determined by means of the “ferroportin internalization assay” described in the following.
Organic compounds of low molecular weight which counteract the biological actions of hepcidin on its receptor, the iron exporter ferroportin (Fpn), were identified on the basis of their ability to inhibit hepcidin-induced internalization of Fpn in living cells. For this purpose, a stable cell line (Madin-Darby canine kidney, MDCK) was produced which constitutively expresses human ferroportin fused recombinantly at its C terminus with a fluorescent reporter protein (HaloTag®, Promega Corp.). The internalization of Fpn was monitored by labelling these cells with fluorescent ligands (HaloTag®-TMR, tetramethylrhodamine) which join covalently on to the HaloTag reporter gene fused with the Fpn. […] Optimized image analysis algorithms were used to ascertain the cell surface and to quantify the corresponding membrane fluorescence associated with the Fpn-HaloTag fusion protein. This assay allows a quantitative image-based analysis in order to quickly evaluate compounds which can block hepcidin-induced internalization of Fpn. This assay is a direct in vitro pendant of the in vivo action mechanism proposed for medicament candidates and is therefore suitable as an initial assay with a high throughput for identifying compounds which counteract the action of hepcidin on its receptor ferroportin.
• 7,500 cells per well (MDCK-FPN-HaloTag) were transinoculated in 50 μl of DMEM medium (Dulbeccos Modified Eagle Medium with 10% foetal bovine serum (FBS), which contained 1% penicillin, 1% streptomycin and 450 μg/ml of G-418) in microtitre plates with 384 wells (384 Cell carrier plates, Perkin Elmer, cat. no. 6007430), followed by incubation overnight at 37° C./5% CO2. • The volume of the medium was reduced to 10 μl, and 10 μl of 5 μM HaloTag-TMR ligands (Promega, cat. no. G 8251) were added in DMEM medium in order to stain the Fpn-HaloTag fusion protein. • 15 min incubation at 37° C./5% CO2 • The HaloTag-TMR ligand was removed and the cells were washed with fresh DMEM medium and the volume was reduced to 20 μl of DMEM medium. • 3 μl per well of a solution of the test compound (dissolved DMSO) were added ([…]). • 7 μl of […] hepcidin (Peptides International, cat. no. PLP-4392-s, 100 μM stock solution diluted in water in DMEM medium) were added per well up to a final hepcidin concentration of 100 nM. • The cells were incubated overnight at 37° C./5% CO2. • The cells were fixed by adding paraformaldehyde (PFA, Electron Microscopy Sciences, cat. no. 15710-S) directly to the cells up to a final concentration of 4%, followed by incubation at room temperature for 15-20 minutes. • The PFA solution was removed and the cells were washed with PBS (phosphate-buffered saline solution), in each case 30 μl remaining in the plate. • 20 μl of Draq5 (Biostatus, cat. no. DR 51000) were added up to a final concentration of 2.5 μM in order to stain the cell nuclei, and the plates were sealed with a foil plate seal. • The plates were analysed with the Opera Plate Imager (Opera Confocal Plate Imager, Perkin Elmer) with 7 images per well; 440 ms exposure time per image, […] focal point height.
As to `O=S1(=O)Nc2c(ccc3cccnc23)-c2ccccc21` [Example 2, 5H-6-Thia-4,5-diaza-chrysene 6,6-dioxide], the IC50 was 2900 nM.
Under `O=S(=O)(Nc1cccc2cccnc12)c1ccccc1` [Example 4, N-Quinolin-8-yl-benzenesulfonamide] stands 4590 nM.
Compound `O=S(=O)(Nc1cccc2cccnc12)c1ccc(Cl)cc1` [Example 5, 4-Chloro-N-quinolin-8-yl-benzenesulfonamide] came in with a half-maximal inhibitory concentration (IC50) of 3200 nM.
Under `O=[N+]([O-])c1ccccc1S(=O)(=O)Nc1cccc2cccnc12` [Example 6, 2-Nitro-N-quinolin-8-yl-benzenesulfonamide] stands 2900 nM; under `Nc1ccccc1S(=O)(=O)Nc1cccc2cccnc12` [Example 8, 2-Amino-N-quinolin-8-yl-benzenesulfonamide], 20800 nM.
Compound `Cc1ccc(S(=O)(=O)Nc2cccc3cccnc23)cc1` [Example 9, 4-Methyl-N-quinolin-8-yl-benzenesulfonamide] had a half-inhibitory concentration (IC50) of 49900 nM.
The value for `O=S(=O)(Nc1cccc2cccnc12)c1ccccc1Cl` [Example 11, 2-Chloro-N-quinolin-8-yl-benzenesulfonamide] was 8000 nM; that for `Cc1ccc(S(=O)(=O)Nc2cccc3cccnc23)c(N)c1` [Example 14, 2-Amino-4-methyl-N-quinolin-8-yl-benzenesulfonamide] was 300 nM; that for `N#Cc1cccc(S(=O)(=O)Nc2cccc3cccnc23)c1` [Example 16, 3-Cyano-N-quinolin-8-yl-benzenesulfonamide] was 413 nM.
`O=S(=O)(Nc1cccc2cccnc12)c1ccc(C(F)(F)F)cc1` [Example 17, N-Quinolin-8-yl-4-trifluoromethyl-benzenesulfonamide] registered an IC50 of 1000 nM.
Regarding `Cc1cccc(S(=O)(=O)Nc2cccc3cccnc23)c1` [Example 19, 3-Methyl-N-quinolin-8-yl-benzenesulfonamide], 2090 nM corresponded to half-maximal inhibition (IC50).
Under `O=S(=O)(Nc1cccc2cccnc12)c1cccc(Cl)c1` [Example 20, 3-Chloro-N-quinolin-8-yl-benzenesulfonamide] stands 985 nM; under `COc1cccc(S(=O)(=O)Nc2cccc3cccnc23)c1` [Example 21, 3-Methoxy-N-quinolin-8-yl-benzenesulfonamide], 1500 nM; under `COc1cc(NS(=O)(=O)c2ccccc2)c2ncccc2c1` [Example 23, N-(6-Methoxy-quinolin-8-yl)-benzenesulfonamide], 6400 nM.
Under `O=S(=O)(Nc1ccc(Cl)c2cccnc12)c1ccccc1` [Example 25, N-(5-Chloro-quinolin-8-yl)-benzenesulfonamide] stands 1670 nM; under `O=[N+]([O-])c1cc(F)ccc1S(=O)(=O)Nc1cccc2cccnc12` [Example 30, 4-Fluoro-2-nitro-N-quinolin-8-yl-benzenesulfonamide], 920 nM.
Under `Nc1cc(F)ccc1S(=O)(=O)Nc1cccc2cccnc12` [Example 31, 2-Amino-4-fluoro-N-quinolin-8-yl-benzenesulfonamide] stands 3940 nM; under `O=S(=O)(Nc1cccc2cccnc12)c1cccnc1` [Example 33, Pyridine-3-sulfonic acid quinolin-8-ylamide], 3640 nM.
In turn, `COc1ccc(S(=O)(=O)Nc2cccc3cccnc23)c([N+](=O)[O-])c1` [Example 34, 4-Methoxy-2-nitro-N-quinolin-8-yl-benzenesulfonamide] displayed an IC50 of 1810 nM.
In turn, `Nc1cc(C(F)(F)F)ccc1S(=O)(=O)Nc1cccc2cccnc12` [Example 35, 2-Amino-N-quinolin-8-yl-4-trifluoromethyl-benzenesulfonamide] came in with a half-maximal inhibitory concentration (IC50) of 760 nM.
As for `O=S(=O)(Nc1cccc2cccnc12)c1ccccc1OC(F)(F)F` [Example 36, N-Quinolin-8-yl-2-trifluoromethoxy-benzenesulfonamide], it took 2500 nM to reach half-maximal inhibition (IC50).
The value for `N#Cc1ccccc1S(=O)(=O)Nc1cccc2cccnc12` [Example 37, 2-Cyano-N-quinolin-8-yl-benzenesulfonamide] was 815 nM.
For the compound `O=S(=O)(Nc1cccc2cccnc12)c1cccc(OC(F)(F)F)c1` [Example 38, N-Quinolin-8-yl-3-trifluoromethoxy-benzenesulfonamide], the concentration for half-maximal inhibition (IC50) worked out at 1200 nM.
With `COC(=O)c1ccccc1S(=O)(=O)Nc1cccc2cccnc12` [Example 39, 2-(Quinolin-8-ylsulfamoyl)-benzoic acid methyl ester], the IC50 was 58100 nM.
The compound `COC(=O)c1cccc(S(=O)(=O)Nc2cccc3cccnc23)c1` [Example 40, 3-(Quinolin-8-ylsulfamoyl)-benzoic acid methyl ester] yielded an IC50 of 1420 nM.
`O=S(=O)(Nc1cccc2cccnc12)c1ccc(Cl)cc1Cl` [Example 41, 2,4-Dichloro-N-quinolin-8-yl-benzenesulfonamide] gave a concentration for half-maximal inhibition (IC50) of 989 nM.
`O=S(=O)(Nc1cccc2cccnc12)c1ccc(Cl)cc1F` [Example 42, 4-Chloro-2-fluoro-N-quinolin-8-yl-benzenesulfonamide] gave an IC50 of 873 nM.
`O=S(=O)(Nc1cccc2cccnc12)c1ccccc1C(F)(F)F` [Example 43, N-Quinolin-8-yl-2-trifluoromethyl-benzenesulfonamide] gave a half-inhibitory concentration (IC50) of 419 nM.
As to `O=S(=O)(Nc1cccc2cccnc12)c1cccc(C(F)(F)F)c1` [Example 44, N-Quinolin-8-yl-3-trifluoromethyl-benzenesulfonamide], the 50% inhibitory concentration (IC50) was determined as 720 nM.
The value for `Cc1cnc2c(NS(=O)(=O)c3ccccc3)cccc2c1` [Example 45, N-(3-Methyl-quinolin-8-yl)-benzenesulfonamide] was 610 nM; that for `O=S(=O)(Nc1ccccc1)Nc1cccc2cccnc12` [Example 46, N-phenyl(quinolin-8-ylamino)sulfonamide] was 2300 nM; that for `O=S(=O)(Nc1cccc2cccnc12)c1c(Cl)cc(Cl)cc1Cl` [Example 47, 2,4,6-Trichloro-N-quinolin-8-yl-benzenesulfonamide] was 857 nM.
With `CC(C)C(=O)Nc1ccccc1S(=O)(=O)Nc1cccc2cccnc12` [Example 48, N-[2-(Quinolin-8-ylsulfamoyl)-phenyl]-isobutyramide], the IC50 turned out to be 24600 nM.
The value for `O=C(Nc1ccccc1S(=O)(=O)Nc1cccc2cccnc12)C(F)(F)F` [Example 49, 2,2,2-Trifluoro-N-[2-(quinolin-8-ylsulfamoyl)-phenyl]-acetamide] was 307 nM; that for `CC(=O)Nc1ccccc1S(=O)(=O)Nc1cccc2cccnc12` [Example 50, N-[2-(Quinolin-8-ylsulfamoyl)-phenyl]-acetamide] was 1370 nM.
`Cc1ccc(S(=O)(=O)Nc2c(Cl)cc(Cl)c3cccnc23)cc1` [Example 51, N-(5,7-Dichloro-quinolin-8-yl)-4-methyl-benzenesulfonamide]: half-maximal inhibition (IC50) was put at 79000 nM.
The value for `O=S(=O)(Nc1ccc(Cl)c2cccnc12)c1ccc(Cl)cc1F` [Example 54, 4-Chloro-N-(5-chloro-quinolin-8-yl)-2-fluoro-benzenesulfonamide] was 1380 nM.

The values above are taken from patent US9102688B2, “Sulfonaminoquinoline hepcidin antagonists” (Vifor (International) AG, priority 2011, dated 2015).
